Experimental data as given in article PMC9502701 (Molecules, 2022).

Target: neuraminidase (NA) (Influenza A virus, UniProt Q6DPL2)
Format: biochemical
Details: for Inhibition Rate (%): 100 μg/mL standard compounds; for IC50: standard compounds

Sequence of neuraminidase (NA) (Q6DPL2 whole entry, looked up): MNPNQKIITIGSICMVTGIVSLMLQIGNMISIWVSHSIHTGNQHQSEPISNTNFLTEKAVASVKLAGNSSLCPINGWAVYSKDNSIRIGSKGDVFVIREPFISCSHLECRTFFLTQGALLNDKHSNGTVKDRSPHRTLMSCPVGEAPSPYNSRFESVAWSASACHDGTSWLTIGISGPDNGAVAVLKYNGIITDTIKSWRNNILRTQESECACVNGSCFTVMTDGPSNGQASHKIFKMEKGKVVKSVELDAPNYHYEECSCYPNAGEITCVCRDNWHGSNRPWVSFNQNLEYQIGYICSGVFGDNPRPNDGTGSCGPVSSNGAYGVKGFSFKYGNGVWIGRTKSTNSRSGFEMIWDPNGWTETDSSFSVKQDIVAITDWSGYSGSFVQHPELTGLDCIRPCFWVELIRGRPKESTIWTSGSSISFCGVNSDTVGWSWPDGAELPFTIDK

SMILES | Inhibition Rate (%) | IC50 [µM]
O=C(/C=C/c1ccc(O)c(O)c1)O[C@H]1[C@H](O)C[C@](O)(C(=O)O)C[C@H]1O [Cryptochlorogenic acid, cryptochlorogenic acid] | 54.89 | 290
O=C(/C=C/c1ccc(O)c(O)c1)O[C@@H]1C[C@@](O)(C(=O)O)C[C@@H](O)[C@@H]1O [Neochlorogenic acid, neochlorogenic acid] | 76.00 | 157
C=C[C@H]1[C@H](O[C@@H]2O[C@H](CO)[C@@H](O)[C@H](O)[C@H]2O)OC=C(C(=O)OC)[C@H]1CC(=O)O [Secoxyloganin, secoxyloganin] | 37.74 | 
O=C(/C=C/c1ccc(O)c(O)c1)O[C@@H]1[C@H](O)C[C@@](O)(C(=O)O)C[C@H]1OC(=O)/C=C/c1ccc(O)c(O)c1 [4,5-Di-O-caffeoylquinic acid] | 75.90 | 132
